In patent publication US10526271B2, “Compositions and methods related to half salts of herbicidal carboxylic acids” (Dow AgroSciences LLC, priority 2015, dated 2020):

Key:
[1] = Volatility by thermogravometric analysis (TGA) weight loss at elevated temperature; type: physicochemical; settings: 120° C., linear region of weight loss curve
Experimental: The volatility of the 2,4-D potassium half salt (as a concentrated aqueous suspension) was compared to that of 2,4-D acid (as technical solid), 2,4-D ethylhexyl ester (EHE, as technical liquid), and 2,4-D dimethylammonium (DMA) and 2,4-D dimethylethanolammonium (DMEA) salts (both as concentrated aqueous solutions) by thermogravometric analysis (TGA) weight loss at elevated temperature. Each of the 2,4-D samples was added in turn (approximately 25-30 mg) to the reservoir cup of a TA Instruments Model 2050 TGA instrument. The temperature was maintained at 120° C. and the weight loss was recorded as a function of time.
For the water-containing samples, rapid weight loss was observed during water removal followed by a linear region (constant rate of loss). Linear curve fitting was applied in this region of the curve to determine rate of 2,4-D loss in μg/min.

redroot pigweed (AMARE) = test: Greenhouse postemergence weed control, redroot pigweed; type: in vivo; settings: 800 g ae/ha, no adjuvant, 21 DAA
Experimental: (§1) Plant material was propagated in the Indianapolis greenhouses under warm temperature conditions of 26 to 28° C. and a 16 hour day length and 8 hour dark cycle. Natural light was supplemented with 1000-watt metal halide overhead lamps with an average illumination of 500 μE m−2 s−1 photosynthetic active radiation for 16 consecutive hours each day. Seeds of each species were planted in 10 cm square pots containing a potting soil, Metro-Mix 360®. Metro-mix 360® consists of Canadian sphagnum peat moss, coarse perlite, bark ash, a starter nutrient charge (with gypsum), a slow-release nitrogen fertilizer and dolomitic limestone. Plants were top watered prior to treatment and sub-irrigated after treatment. Plant material was fertilized three times a week with Jack's fertilizer solution (Jack's Professional 15-5-15 4 Ca 2 Mg fertilizer manufactured by JR PETERS INC.; 6656 Grant Way; Allentown, Pa. 18106). Appropriate amounts of herbicides were weighed and diluted with Indianapolis tap water.
(§2) All treatments were applied to selected plant species with a track sprayer (Generation III Research Sprayer manufactured by DeVries Manufacturing in Hollandale, Minn., USA) located in building 306, laboratory E1-483, at the Dow AgroSciences facility in Indianapolis, Ind. The track sprayer was calibrated to deliver 140 L/ha at 40 psi ([…]) pressure utilizing an 8002E even, flat fan nozzle. Track sprayer speed was set at 1.6 mph ([…]). Applications were made to replicates of each species in a randomized complete block design, with 4 replications per treatment.
(§3) All species were evaluated at 15 or 21 days after application (DAA). The treated plants and control plants were evaluated using a rating scale of 0-100%, wherein 0% indicates no injury or control of the vegetation and 100% indicates complete death of the plants.

[2] = tested on: common lambsquarters (CHEAL); test: Greenhouse postemergence weed control, common lambsquarters; type: in vivo; settings: 800 g ae/ha, no adjuvant, 21 DAA
Experimental: as §1, §2, §3

common ragweed (AMBTR) = test: Greenhouse postemergence weed control, common ragweed; type: in vivo; settings: 800 g ae/ha, no adjuvant, 21 DAA
Experimental: as §1, §2, §3

sicklepod (CASOB) = test: Greenhouse postemergence weed control, sicklepod; type: in vivo; settings: 800 g ae/ha, no adjuvant, 21 DAA
Experimental: as §1, §2, §3

| Compound | Rate of Loss [1] | % Control AMARE (redroot pigweed (AMARE)) | % Control CHEAL [2] | % Control AMBTR (common ragweed (AMBTR)) | % Control CASOB (sicklepod (CASOB)) |
| --- | --- | --- | --- | --- | --- |
| O=C(O)COc1ccc(Cl)cc1Cl [2,4-D Acid, 2,4-dichlorophenoxyacetic acid] | 2.29 µg/min |  |  |  |  |
| C[N+](C)(C)CCO.O=C([O-])COc1ccc(Cl)cc1Cl [2,4-D Choline] |  | 95% | 74% |  |  |
| CNC.O=C(O)COc1ccc(Cl)cc1Cl [2,4-D DMA, 2,4-D dimethylammonium] | 1.5 µg/min | 91% | 73% | 100% | 95% |
| CN(C)CCO.O=C(O)COc1ccc(Cl)cc1Cl [2,4-D DMEA, 2,4-D dimethylethanolammonium] | 0.905 µg/min |  |  |  |  |
| CCCCC(CC)COC(=O)COc1ccc(Cl)cc1Cl (stereo not drawn) [2,4-D EHE, 2,4-D ethylhexyl ester] | 11 µg/min |  |  |  |  |
| O=C(O)COc1ccc(Cl)cc1Cl.O=C([O-])COc1ccc(Cl)cc1Cl.[K+] [2,4-D K Half Salt, 2,4-D Potassium Half Salt] | 0.132 µg/min | 91% | 84% | 100% | 100% |
| N.O=C(O)COc1ccc(Cl)cc1Cl.O=C(O)COc1ccc(Cl)cc1Cl [2,4-D NH4 half-salt] |  | 91% | 74% | 100% | 100% |
| N.O=C(O)COc1ccc(Cl)cc1Cl [2,4-D NH4] |  | 95% | 92% | 99% | 100% |
| O=C(O)COc1ccc(Cl)cc1Cl.O=C([O-])COc1ccc(Cl)cc1Cl.[Na+] [2,4-D Na half-salt, 2,4-D Sodium Half Salt] |  | 92% | 85% | 100% | 100% |
